From patent publication US20260109707A1, “HETEROBIFUNCTIONAL COMPOUNDS AND METHODS OF TREATING DISEASE” (Halda Therapeutics OpCo. Inc., priority 2022, published 2026)
Where two headings read alike, the source gives them in different places.

Experiments:
[1] = system: T-Rex 293 cell line SC3 cells having increased expression of androgen receptor protein due to exposure to doxycycline; assay: Cellular growth inhibition assay, T-Rex 293 SC3 cells with doxycycline (CellTiter-Glo, 72 hours); type: cell-based; settings: T-Rex 293 SC3 cells with increased androgen receptor expression due to doxycycline (10 ng/mL)
Summary of the method: (§1)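 Doxycycline (10 ng/mL) was either included or omitted to toggle wild-type androgen receptor expression in SC3 cells, a T-Rex 293 clone, grown in stripped-serum, phenol red-free medium. After 72 hours with compound, viable cells were quantified by CellTiter-Glo 2.0.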

[2] = system: T-Rex 293 cell line SC3 cells lacking increased expression of androgen receptor protein; assay: Cellular growth inhibition assay, T-Rex 293 SC3 cells without doxycycline (CellTiter-Glo, 72 hours); type: cell-based; settings: T-Rex 293 cell line SC3 cells not exposed to doxycycline (lacking increased androgen receptor expression)
Summary of the method: as §1

[3] = system: VCaP cells; assay: Cellular growth inhibition assay for VCaP cells (CellTiter-Glo, 72 hours); type: cell-based, human
Summary of the method: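 Luminescent viability signal after 72 h of compound exposure gave GI50 values by four-parameter nonlinear regression. Compounds were added in 0.5% DMSO to cells plated 24 h earlier at 5000/well in DMEM containing 10% FBS.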

[4] = system: T47D cells; assay: Cellular growth inhibition assay for T47D cells (CellTiter-Glo, 72 hours); type: cell-based, human; settings: 72 hours treatment
Summary of the method: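 Growth inhibition as GI50, fitted with four parameters to CellTiter-Glo luminescence after 72 h of compound exposure (0.5% DMSO). Cells were T47D, grown in insulin-supplemented (0.2 units/mL) DMEM with 10% FBS and treated one day post-seeding.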

Row | SMILES | GI50 ([1]; 72 h) | GI50 ([2]; 72 h) | GI50 ([3]; Homo sapiens, VCaP, 72 h) | GI50 ([4]; Homo sapiens, T47D, 72 h) | GI50 [1] | GI50 [2] | GI50 [3] | GI50 [4]
1 | CC1=NN=C2C1c1sc(C)c(C)c1C(c1ccc(C#CC3CCN(c4ccc(C(=O)N[C@H]5CC[C@H](Oc6ccc(C#N)c(Cl)c6)CC5)nn4)CC3)cc1)=N[C@H]2Cc1ncco1 (some centres unmarked) [I-394] | < 500 nM | < 500 nM | < 500 nM | < 500 nM |  |  |  | 
2 | Cc1sc2c(c1C)C(c1ccc(CCC[C@H]3CCCN(c4ccc(C(=O)N[C@H]5CC[C@H](OC6CCC(C#N)C(Cl)C6)CC5)nn4)CC3)cc1)=N[C@@H](Cc1ncco1)c1nnc(C)n1-2 (some centres unmarked) [I-395] | < 500 nM | < 500 nM | < 500 nM | < 500 nM |  |  |  | 
3 | Cc1sc2c(c1C)C(c1ccc(CCCC3CCCN(c4ccc(C(=O)N[C@H]5CC[C@H](OC6CCC(C#N)C(Cl)C6)CC5)nn4)CC3)cc1)=N[C@@H](Cc1ncco1)c1nnc(C)n1-2 (some centres unmarked) [I-396] | < 500 nM | < 500 nM | < 500 nM | < 500 nM |  |  |  | 
4 | Cc1sc2c(c1C)C(c1ccc(N3CCC4(CC3)CCN(c3ccc(C(=O)NC5CCC(Oc6ccc(C#N)c(Cl)c6)CC5)nn3)CC4)cc1)=N[C@@H](Cc1ncco1)c1nnc(C)n1-2 (some centres unmarked) [I-397] | < 500 nM | < 500 nM | < 500 nM | < 500 nM |  |  |  | 
5 | Cc1sc2c(c1C)C(c1ccc(N3CCC4(CCCN(c5ccc(C(=O)N[C@H]6CC[C@H](Oc7ccc(C#N)c(Cl)c7)CC6)nn5)C4)CC3)cc1)=NC1(CC1)c1nnc(C)n1-2 [I-398] | < 500 nM | > 3000 nM | 1500 to 3000 nM | > 3000 nM |  |  |  | 
6 | Cc1sc2c(c1C)C(c1ccc(N3CCC4(CC3)CCN(c3ccc(C(=O)N[C@H]5CC[C@H](Oc6ccc(C#N)c(Cl)c6)CC5)nn3)C4)cc1)=NC1(CC1)c1nnc(C)n1-2 [I-399] | < 500 nM | 500 to 1500 nM | < 500 nM | 1500 to 3000 nM |  |  |  | 
7 | Cc1sc2c(c1C)C(c1ccc(N3CCC4(CC3)CCN(c3ccc(C(=O)N[C@H]5CC[C@H](Oc6ccc(C#N)c(Cl)c6)CC5)nn3)C4)cc1)=NCc1nnc(C)n1-2 [I-400] | < 500 nM | 500 to 1500 nM | 1500 to 3000 nM | > 3000 nM |  |  |  | 
8 | Cc1sc2c(c1C)C(c1ccc(CCC3CCC4CN(c5ccc(C(=O)N[C@H]6CC[C@H](Oc7ccc(C#N)c(Cl)c7)CC6)nn5)CCN4C3)cc1)=NC(Cc1ncco1)c1nnc(C)n1-2 (some centres unmarked) [I-401] |  |  |  |  | > 3000 nM | > 3000 nM | > 3000 nM | > 3000 nM
9 | Cc1sc2c(c1C)C(c1ccc(CCC3CCC4CN(c5ccc(C(=O)N[C@H]6CC[C@H](Oc7ccc(C#N)c(Cl)c7)CC6)nn5)CCN4C3)cc1)=NC(Cc1ncco1)c1nnc(C)n1-2 (some centres unmarked) [I-402] |  |  |  |  | < 500 nM | > 3000 nM | > 3000 nM | > 3000 nM
10 | Cc1sc2c(c1C)C(c1ccc(CCC3CCC4CN(c5ccc(C(=O)N[C@H]6CC[C@H](Oc7ccc(C#N)c(Cl)c7)CC6)nn5)CCN4C3)cc1)=NC(Cc1ncco1)c1nnc(C)n1-2 (some centres unmarked) [I-403] |  |  |  |  | < 500 nM | < 500 nM | < 500 nM | < 500 nM
11 | Cc1sc2c(c1C)C(c1ccc(CCC3CCC4CN(c5ccc(C(=O)N[C@H]6CC[C@H](Oc7ccc(C#N)c(Cl)c7)CC6)nn5)CCN4C3)cc1)=NC(Cc1ncco1)c1nnc(C)n1-2 (some centres unmarked) [I-404] |  |  |  |  | < 500 nM | < 500 nM | < 500 nM | < 500 nM
12 | Cc1sc2c(c1C)C(c1ccc(OC[C@H]3CC[C@]4(C3)CN(c3ccc(C(=O)N[C@H]5CC[C@H](Oc6ccc(C#N)c(Cl)c6)CC5)nn3)CCO4)cn1)=N[C@@H](Cc1ncco1)c1nnc(C)n1-2 [I-405] | < 500 nM | < 500 nM | < 500 nM | < 500 nM |  |  |  | 
13 | Cc1sc2c(c1C)C(c1ccc(OC[C@H]3CC[C@@]4(CCCN(c5ccc(C(=O)N[C@H]6CC[C@H](Oc7ccc(C#N)c(Cl)c7)CC6)nn5)C4)C3)cn1)=N[C@@H](Cc1ncco1)c1nnc(C)n1-2 [I-406] | < 500 nM | < 500 nM | < 500 nM | < 500 nM |  |  |  | 
14 | CC1=NN=C2C1c1sc(C)c(C)c1C(c1ccc(C#CC3C4CN(c5ccc(C(=O)N[C@H]6CC[C@H](Oc7ccc(C#N)c(Cl)c7)CC6)nn5)CC34)cc1)=N[C@H]2Cc1ncco1 (some centres unmarked) [I-407] | > 3000 nM | > 3000 nM | < 500 nM | > 3000 nM |  |  |  | 
15 | CC1=NN=C2C1c1sc(C)c(C)c1C(c1ccc(C#CC3C4CN(c5ccc(C(=O)N[C@H]6CC[C@H](Oc7ccc(C#N)c(Cl)c7)CC6)nn5)CC34)cc1)=N[C@@H]2Cc1ncco1 (some centres unmarked) [I-408] | < 500 nM | < 500 nM | < 500 nM | < 500 nM |  |  |  | 
16 | CC1=NN=C2C1c1sc(C)c(C)c1C(c1ccc(C3CCC4(CC3)CCN(c3ccc(C(=O)N[C@H]5CC[C@H](Oc6ccc(C#N)c(Cl)c6)CC5)nn3)CC4)cc1)=N[C@H]2Cc1ncco1 (some centres unmarked) [I-409] | > 3000 nM | > 3000 nM | > 3000 nM | > 3000 nM |  |  |  | 
17 | CC1=NN=C2C1c1sc(C)c(C)c1C(c1ccc(C3CCC4(CC3)CCN(c3ccc(C(=O)N[C@H]5CC[C@H](Oc6ccc(C#N)c(Cl)c6)CC5)nn3)CC4)cc1)=N[C@@H]2Cc1ncco1 (some centres unmarked) [I-410] | < 500 nM | < 500 nM | < 500 nM | < 500 nM |  |  |  | 
18 | Cc1sc2c(c1C)C(c1ccc(CCC[C@@H]3CCCN(c4ccc(C(=O)N[C@H]5CC[C@H](Oc6ccc(C#N)c(Cl)c6)CC5)nn4)CC3)cc1)=N[C@@H](Cc1ncco1)c1nnc(C)n1-2 [I-411] | < 500 nM | < 500 nM | < 500 nM | < 500 nM |  |  |  | 
19 | Cc1sc2c(c1C)C(c1ccc(-c3ccc(C4CC5(C4)CN(c4ccc(C(=O)N[C@H]6CC[C@H](Oc7ccc(C#N)c(Cl)c7)CC6)nn4)C5)cc3)cc1)=N[C@@H](Cc1ncco1)c1nnc(C)n1-2 [I-412] | < 500 nM | < 500 nM | 500 to 1500 nM | < 500 nM |  |  |  | 
20 | Cc1sc2c(c1C)C(c1ccc(N3CCN(C4CCN(c5ccc(C(=O)N[C@H]6CC[C@H](Oc7ccc(C#N)c(Cl)c7)CC6)nn5)CC4)C3=O)cc1)=NC(Cc1ncco1)c1nnc(C)n1-2 (some centres unmarked) [I-413] | < 500 nM |  |  |  |  | > 3000 nM | 1500 to 3000 nM | 1500 to 3000 nM
21 | Cc1sc2c(c1C)C(c1ccc(N3CCN(C4CCN(c5ccc(C(=O)N[C@H]6CC[C@H](Oc7ccc(C#N)c(Cl)c7)CC6)nn5)CC4)C3=O)cc1)=NC(Cc1ncco1)c1nnc(C)n1-2 (some centres unmarked) [I-414] |  |  |  |  | < 500 nM | < 500 nM | < 500 nM | < 500 nM
22 | Cc1sc2c(c1C)C(c1ccc(N3CCC4(CC3)CC(Cc3ccc(C(=O)N[C@H]5CC[C@H](Oc6ccc(C#N)c(Cl)c6)CC5)nn3)C4)cc1)=NC(Cc1ncco1)c1nnc(C)n1-2 (some centres unmarked) [I-415] | < 500 nM |  | < 500 nM | 500 to 1500 nM |  | > 3000 nM |  | 
23 | Cc1sc2c(c1C)C(c1ccc(N3CCC4(CC3)CC(Cc3ccc(C(=O)N[C@H]5CC[C@H](Oc6ccc(C#N)c(Cl)c6)CC5)nn3)C4)cc1)=NC(Cc1ncco1)c1nnc(C)n1-2 (some centres unmarked) [I-416] |  |  |  |  | < 500 nM | 500 to 1500 nM | < 500 nM | < 500 nM
24 | Cc1sc2c(c1C)C(c1ccc(OC3CC4(CCN(c5ccc(C(=O)N[C@H]6CC[C@H](Oc7ccc(C#N)c(Cl)c7)CC6)nn5)CC4)C3)cc1)=NC1(CC1)c1nnc(C)n1-2 [I-417] | < 500 nM | > 3000 nM | > 3000 nM | 500 to 1500 nM |  |  |  | 
25 | Cc1sc2c(c1C)C(c1ccc(C#CC3CC4(C3)CN(c3ccc(C(=O)N[C@H]5CC[C@H](Oc6ccc(C#N)c(Cl)c6)CC5)nn3)C4)cc1)=NC1(CC1)c1nnc(C)n1-2 [I-418] | < 500 nM | < 500 nM | < 500 nM | < 500 nM |  |  |  | 
26 | Cc1sc2c(c1C)C(c1ccc(C#CC3CC4(CCCN(c5ccc(C(=O)NC6CCC(Oc7ccc(C#N)c(Cl)c7)CC6)nn5)C4)C3)cc1)=NCc1nnc(C)n1-2 (centres unmarked) [I-419] | < 500 nM | > 3000 nM | < 500 nM | < 500 nM |  |  |  | 
